The record followed here is US20250268844A1, “ANTICANCER AGENTS BASED ON CYCLOPENTENONES” (UNIVERSITY OF CRETE, priority 2022, published 2025).

The subject of experiment [1] is Mac1 anaplastic large cell lymphoma cells. The experiment can be described thus: MTT conversion assay, Mac1. The conditions noted are these: Homo sapiens, Mac1, ALCL, 48 hrs treatment. It counts as cell-based. The method, then:
In particular, Enone-1 and Enone-2 were tested for cytotoxic activity in 17 cell lines representing a broad spectrum of human tumors. They include human colorectal carcinoma (Caco2, RKO, HCT15, HT29), liver (HepG2), lung (A549), ovarian carcinoma (A2780, 2780CP, AGE60, SKOV3), anaplastic large cell lymphoma (Mac1 and Mac2a), breast carcinoma (MDA-MB-231), cervical (HeLa), bladder cancer (VM-CUB-1), melanoma (BRO), and multiple myeloma (MR20).
(§1) Each assay was performed in triplicate and repeated in 2-3 independent experiments. Specifically, to measure cell survival, 20 μl of 10 mg/ml MTT (3-([…])-2,5-diphenyl tetrazolium bromide; Sigma) was added to each well and the plates were incubated at 37° C. in 5% CO2 for 3 hours. The supernatant was removed and the formed crystals were dissolved in 200 μl dimethyl sulphoxide. The plates were then analysed at 450 nm on a plate reader. Growth inhibition (reduction in survival) was calculated by expressing the differences in optical densities between treatment wells and control wells as a percentage of the control.

Experiment [2] has as its system MB49 mouse bladder carcinoma cells. The experiment can be described thus: MTT assay, MB49. It counts as cell-based. The conditions noted are these: 48 hrs. As for the experimental part:
FIG. 5: Effects of enone compounds on mouse tumor growth.
as §1
First, the impact of Enone-1 and Enone-2 on the survival of MB49 cells was verified by MTT assays performed as described in FIG. 1.
Background: Formazan colour is commonly taken as a measure of viable cells.

Experiment [3] has as its system MB49 mouse bladder carcinoma tumors. The experiment can be described thus: Subcutaneous MB49 tumor growth in C57BL/6 mice. It counts as in vivo. The conditions noted are these: C57BL/6 female mice; 5 mg/kg intratumorally on days 7, 10, 14 and 20; vs saline. The method, then: The in vivo anti-tumor effect of Enones was determined by xenotransplantation of MB49 mouse bladder carcinoma cells in syngeneic, immunocompetent C57BL/6 female mice.
On this basis, the in vivo anti-tumor activity of Enone-2 was tested. Female mice were transplanted subcutaneously with 10^6 MB49 cells which formed tumors of approx. 40-60 mm^2 size by day 7. Mice were randomly separated in 2 groups of 5 animals each and injected intratumorally with 50 μl Enone-2 to achieve 5 mg/kg drug dose on days 7, 10, 14 and 20. The tumor size was monitored using a digital caliper and expressed in mm^2 by multiplying the length (the longest diameter) with the width (the shortest diameter perpendicular to length) of the tumor.

Broadly, the IC50 is the point on the concentration scale where inhibition reaches its midpoint. Read a low IC50 as greater potency. In the case of `C[C@@]1(O)C=CC(=O)[C@H]1c1ccc(F)c2ccccc12` (stereo in doubt) [Enone-2, 5-(4-fluoronaphthalen-1-yl)-4-hydroxy-4-methylcyclopent-2-en-1-one], the IC50 in experiment [1] is 1800 nM; in experiment [2], 600 nM. The “subcutaneous tumor growth (tumor size)” value in experiment [3] is on record as “arrested tumor growth”.
